By EC50 is commonly meant the concentration needed to bring the measured effect to its halfway point.

The structures appear in SMILES notation.

The text below walks through data of patent US11649236B2, “Polycyclic carbamoylpyridone derivative” (Shionogi & Co., Ltd., priority 2018, dated 2023).

One series can be described thus: Metabolic stability test. It counts as in vitro ADME, human. On the set-up: key: % remaining vs amount at 0 min (=100%). Here is the method:
Commercially available pooled human liver microsomes were reacted with the compound of the present invention for a certain time. A residual rate was calculated by the comparison between the reacted sample and an unreacted sample to evaluate the degree at which the compound of the present invention is metabolized in the liver. A reaction was performed (oxidative reaction) at 37° C. for 0 minutes or 30 minutes in the presence of 1 mmol/L NADPH in 0.2 mL of a buffer (50 mmol/L Tris-HCl pH 7.4, 150 mmol/L potassium chloride, 10 mmol/L magnesium chloride) containing 0.5 mg protein/mL of human liver microsomes. After the reaction, 50 μL of the reaction solution was added to 100 μL of a solution of methanol/acetonitrile=1/1 (v/v) and mixed, and the mixture was centrifuged at 3000 rpm for 15 minutes. The compound of the present invention in the centrifugation supernatant was quantified by LC/MS/MS or solid-phase extraction (SPE)/MS. The amount of the compound of the present invention remaining after the reaction was calculated with the amount of the compound at 0 minutes of the reaction defined as 100%.

A further series has as its system HIV. The experiment in a line: Anti-HIV activity (MT-4 cells, MTT). In kind it is cell-based. The settings on record: Human immunodeficiency virus 1, MT4, 96 h, cultured 4 days. Here is the method: Serial dilutions of a test sample were prepared in a 96-well microplate (50 μL/well). 2.5×10^5 cells/mL of a MT-4 cell suspension was dispensed at 100 μL/well to the plate containing the test sample. Then, an HIV virus solution was dispensed at 50 μL/well. The plate was mixed with a plate mixer and cultured for 4 days in a CO2 incubator. An MTT (3-(4,5-dimethylthiazol-2-yl)-2,5-diphenyltetrazolium bromide) solution was dispensed at 30 μL/well. The plate was reacted for 1 hour in a CO2 incubator. 150 μL of the supernatant was removed from each well so as not to take up the cells. 150 μL of a cell lysis solution was added to each well and well mixed with a plate mixer until the cells were completely lysed. The absorbance of the mixed plate was measured at two wavelengths of 560 nm and 690 nm with a microplate reader.

For series [1], the system named is HIV mutant strain 1 (E138K/G140S/Q148H/N155H). Put plainly: Resistance evaluation test (HeLa-CD4 reporter), mutant strain 1. It counts as cell-based. The settings on record: FC=EC50 of mutant strain/EC50 of wild strain, HeLa-CD4 cells. The procedure: (§1) Serial dilutions of a test sample were prepared in a96-well microplate (50 μL/well). 2.5×10^5 cells/mL of a HeLa-CD4 cell suspension was dispensed at 100 μL/well to the plate containing the test sample. Then, an HIV virus solution (wild strain and mutant strain) was dispensed at 50 μL/well. The plate was mixed with a plate mixer and cultured for 3 days in a CO2 incubator. The culture supernatant in each well was removed by suction. A cell lysis buffer in a reporter assay kit was dispensed at 100 μL/well, and the plate was frozen in a freezer (−80° C.). The plate frozen in a freezer was thawed at room temperature, then mixed with a plate mixer, and centrifuged at 1,200 rpm for 5 minutes. The supernatant of each well was dispensed at 20 μL/well to a 96-well microplate (BLACK). A chemiluminescent reagent in the reporter assay kit was dispensed at 100 μL/well and reacted at room temperature for approximately 1 hour. Then, luminescence intensity was measured using MicroBeta TRILUX. […] FC=EC50 of mutant strain/EC50 of wild strain (Results) FC for the mutant strain 1 (E138K/G140S/Q148H/N155H) and FC for the mutant strain 2 (E92Q/E138T/G140S/Q148H) are shown in the table.

The test system of series [2] is HIV mutant strain 2 (E92Q/E138T/G140S/Q148H). The experiment in a line: Resistance evaluation test (HeLa-CD4 reporter), mutant strain 2. In kind it is cell-based. The settings on record: FC=EC50 of mutant strain/EC50 of wild strain, HeLa-CD4 cells. Here is the method: as §1
Setting [3] is: compound 0.5 μmol/L, human liver microsomes 0.5 mg protein/mL, NADPH, 37° C., 30 minutes, amount at 0 minutes defined as 100%.

In the case of `C[C@H]1C[C@H]2N(C)C(=O)c3c(O)c(=O)c(C(=O)NCc4cccc(Cl)c4F)cn3N2C1` [II-042], the residual rate in the series “Metabolic stability test” (setting [3]) is reported as 97.4. In the series on HIV, this compound came in with an EC50 of 3.2 nM. Besides, the “FC mutant strain 1” value in series [1] is reported as 15. In addition, the “FC mutant strain 2” value in series [2] is on record as 7.9.
In turn, `CCN1C(=O)c2c(O)c(=O)c(C(=O)NCc3cccc(Cl)c3F)cn2N2[C@H]3COC[C@H]3C[C@@H]12` [II-060] displayed a residual rate in “Metabolic stability test” (human, 30 min, 0.5 μmol/L, pH 7.4) of 61.6. In the series on HIV, this compound gave an EC50 of 0.27 nM. Moreover, the “FC mutant strain 1” value in series [1] stood at 22. In series [2], the “FC mutant strain 2” value was found to be 16.
Take `CN1C(=O)c2c(O)c(=O)c(C(=O)NCc3cccc(Cl)c3F)cn2N2CCOC[C@@H]12` [II-108]: the residual rate in the series “Metabolic stability test” (setting [3]) amounted to 97.2. This compound gave an EC50 with HIV of 0.61 nM. For the same compound, the “FC mutant strain 1” value in series [1] is listed as 50. Further, the “FC mutant strain 2” value in series [2] is 27.
`CCN1C(=O)c2c(O)c(=O)c(C(=O)NCc3ccc(F)cc3F)cn2N2CC[C@@H](C)C[C@@H]12` [II-023] displayed a residual rate in the series “Metabolic stability test” (setting [3]) of 82.9. In the series with HIV, this compound showed an EC50 of 0.46 nM. The “FC mutant strain 1” value in series [1] stood at 7. For the same compound, the “FC mutant strain 2” value in series [2] is 4.2.
For `CN1C(=O)c2c(O)c(=O)c(C(=O)NCc3cccc(Cl)c3F)cn2N2CCCC[C@@H]12` [II-022] the same measures were 101, 0.74 nM, 6.8 and 7.7.
`CCN1C(=O)c2c(O)c(=O)c(C(=O)NCc3c(F)cc(F)cc3F)cn2N2CCCC[C@@H]12` [Compound I-011] displayed a residual rate in the series “Metabolic stability test” (setting [3]) of 88. A half-maximal response in the series on HIV (EC50) required 2.2 nM. In series [1], the “FC mutant strain 1” value stood at 13. In addition, the “FC mutant strain 2” value in series [2] stood at 10.
`CCN1C(=O)c2c(O)c(=O)c(C(=O)NCc3ccc(F)cc3F)cn2N2CC[C@H](C)C[C@@H]12` [II-071] gave a residual rate in “Metabolic stability test” (setting [3]) of 104. The same compound had an EC50 with HIV of 0.74 nM. In addition, the “FC mutant strain 1” value in series [1] is on record as 27. Also, the “FC mutant strain 2” value in series [2] is recorded as 22.
For `CCN1C(=O)c2c(O)c(=O)c(C(=O)NCc3cccc(F)c3F)cn2N2CCCC[C@@H]12` [Compound I-042], the EC50 with HIV amounted to 0.72 nM.
On the same count and under the same terms, under `CCN1C(=O)c2c(O)c(=O)c(C(=O)NCc3ccnc(Cl)c3F)cn2N2CCCC[C@@H]12` [II-062] stands 3.2 nM.
Same read-out and setting: under `CCN1C(=O)c2c(O)c(=O)c(C(=O)NCc3ccc(F)cc3F)cn2N2CC[C@H](C)[C@@H]12` [II-073] stands 0.25 nM.
Still for that read-out and setting: the figure for `CCN1C(=O)c2c(O)c(=O)c(C(=O)NCc3ccc(F)cc3F)cn2N2[C@@H]3COC[C@@H]3C[C@@H]12` [II-145] is 0.68 nM; for `C[C@@H]1CC[C@H]2N(C)C(=O)c3c(O)c(=O)c(C(=O)NCc4cccc(Cl)c4F)cn3N12` [II-047] it is 0.57 nM.
For `CCN1C(=O)c2c(O)c(=O)c(C(=O)NCc3ccc(F)cc3F)cn2N2[C@@H]3CCC[C@@H]3C[C@@H]12` [II-025], the half-maximal effective concentration (EC50) in the series on HIV came to 1.1 nM.
Still for that read-out and setting: under `CCN1C(=O)c2c(O)c(=O)c(C(=O)NCc3ccc(F)cc3F)cn2N2Cc3cc(Cl)ccc3[C@@H]12` [II-124] stands 2.6 nM; under `C[C@@H]1CCN2[C@@H](C1)N(C)C(=O)c1c(O)c(=O)c(C(=O)NCc3cccc(Cl)c3F)cn12` [II-036], 3.8 nM.
Still for that read-out and setting: the figure for `COC[C@@H]1CC[C@H]2N(C(C)C)C(=O)c3c(O)c(=O)c(C(=O)NCc4ccc(F)cc4F)cn3N12` [II-010] is 1 nM; for `CCN1C(=O)c2c(O)c(=O)c(C(=O)NCc3ccc(F)cc3F)cn2N2CCNC[C@@H]12` [Compound I-010] it is 1.9 nM.
Regarding `CCN1C(=O)c2c(O)c(=O)c(C(=O)NCc3ncc(Cl)cc3F)cn2N2CCCC[C@@H]12` [II-076], the EC50 with HIV was determined as 3.3 nM.
Take `CC(C)N1C(=O)c2c(O)c(=O)c(C(=O)NCc3c(F)cc(F)cc3F)cn2N2CC[C@@H](C)C[C@@H]12` [II-064]: the 50% effective concentration (EC50) with HIV came to 1.2 nM.
`CCN1C(=O)c2c(O)c(=O)c(C(=O)NCc3ccc(F)cc3F)cn2N2[C@@H]3CCC[C@@H]3CC[C@@H]12` [II-078] showed an EC50 in the series with HIV of 1.1 nM.
In the case of `CCN1C(=O)c2c(O)c(=O)c(C(=O)NCc3ccc(F)cc3F)cn2N2CCN(C(=O)OC(C)(C)C)C[C@@H]12` [Compound I-009], the EC50 in the series with HIV was 1.2 nM.
`CCN1C(=O)c2c(O)c(=O)c(C(=O)NCc3ccc(F)cc3F)cn2N2[C@H](C)CC[C@@H]12` [II-068] registered an EC50 in the series on HIV of 0.61 nM.
With `C[C@@H]1CC[C@H]2N(C)C(=O)c3c(O)c(=O)c(C(=O)NCc4ccc(Cl)cc4F)cn3N12` [II-138], the EC50 in the series on HIV came to 2.1 nM.
The same measure, in the same setting: under `CCN1C(=O)c2c(O)c(=O)c(C(=O)NCc3ccc(F)cc3F)cn2N2CCN(c3ncccn3)C[C@@H]12` [II-146] stands 1.6 nM.
Compound `CC[C@@H](NC(=O)c1cn2c(c(O)c1=O)C(=O)N(CC)[C@@H]1CCCCN12)c1ccc(F)cc1F` [II-137] had an EC50 with HIV of 33 nM.
In the series with HIV, `CN1C(=O)c2c(O)c(=O)c(C(=O)NCc3c(F)cc(F)cc3F)cn2N2CC3(CC3)C[C@@H]12` [II-139] yielded a 50% effective concentration (EC50) of 0.62 nM.
Take `CCN1C(=O)c2c(O)c(=O)c(C(=O)N[C@H](C)c3ccc(F)cc3F)cn2N2CCCC[C@@H]12` [Compound I-029]: in the series with HIV, it took 12 nM to reach a half-maximal effect (EC50).
As for `C[C@H]1CCN2[C@@H](C1)N(C)C(=O)c1c(O)c(=O)c(C(=O)NCc3ccc(Cl)cc3F)cn12` [II-061], the EC50 in the series on HIV is 3.4 nM.
Compound `CCN1C(=O)c2c(O)c(=O)c(C(=O)N[C@@H](C)c3ccc(F)cc3F)cn2N2CCCC[C@@H]12` [Compound I-030] showed an EC50 with HIV of 36 nM.
As for `CCN1C(=O)c2c(O)c(=O)c(C(=O)NCc3ccc(F)c(C)c3F)cn2N2CCCC[C@@H]12` [Compound I-012], the EC50 with HIV worked out at 4 nM.
`CCN1C(=O)c2c(O)c(=O)c(C(=O)NCc3ccc(F)cc3F)cn2N2Cc3ccccc3[C@@H]12` [Compound I-018] showed an EC50 in the series with HIV of 2.1 nM.
`CCN1C(=O)c2c(O)c(=O)c(C(=O)NCc3ccc(F)c(Cl)c3F)cn2N2CCC[C@@H]12` [Compound I-005] showed an EC50 in the series with HIV of 1.3 nM.
The compound `CCN1C(=O)c2c(O)c(=O)c(-c3nnc(Cc4ncc(Cl)cc4F)s3)cn2N2CCCC[C@@H]12` [II-098] displayed a concentration giving a half-maximal response (EC50) in the series on HIV of 4 nM.
Same read-out and setting: the figure for `O=C(NCc1ccc(F)cc1F)c1cn2c(c(O)c1=O)C(=O)N(C1CC(F)(F)C1)[C@@H]1CCCCN12` [Compound I-051] is 0.72 nM; for `CCN1C(=O)c2c(O)c(=O)c(C(=O)NCc3ccc(F)c(F)c3F)cn2N2CCCC[C@@H]12` [Compound I-025] it is 1.9 nM; for `CCN1C(=O)c2c(O)c(=O)c(C(=O)NCc3ccc(F)cc3F)cn2N2CCN(CC3CC3)C[C@@H]12` [II-101] it is 1.6 nM.
`CCN1C(=O)c2c(O)c(=O)c(C(=O)NCc3ccc(F)cc3F)cn2N2C[C@@H]3C[C@@H]3[C@@H]12` [II-083]: in the series with HIV, it took 0.95 nM to reach a half-maximal effect (EC50).
Still for that read-out and setting: under `CN1C(=O)c2c(O)c(=O)c(C(=O)NCc3ccc(F)c(F)c3F)cn2N2CCCC[C@@H]12` [II-074] stands 0.71 nM; under `CCN1C(=O)c2c(O)c(=O)c(C(=O)NCc3cccc(Cl)c3Cl)cn2N2CCCC[C@@H]12` [Compound I-033], 2.5 nM; under `CCN1C(=O)c2c(O)c(=O)c(C(=O)NCc3ccc(F)cc3Cl)cn2N2CCCC[C@@H]12` [Compound I-038], 0.72 nM.
`O=C(NCc1ccc(F)cc1F)c1cn2c(c(O)c1=O)C(=O)N(C1CCCC1)[C@@H]1CCCCN12` [Compound I-026]: the EC50 with HIV came out at 3.5 nM.
Compound `CCN1C(=O)c2c(O)c(=O)c(C(=O)NCc3ccc(F)cc3F)cn2N2CCN(CCOC)C[C@@H]12` [II-088] had an EC50 in the series on HIV of 3.1 nM.
In turn, `O=C(NCc1ccc(F)cc1F)c1cn2c(c(O)c1=O)C(=O)N(CC(F)(F)F)[C@@H]1CCCCN12` [Compound I-053] came in with an EC50 with HIV of 0.94 nM.
